Experimental data from patent publication US4705749A, “Process and reagent for the determination of glycerol with the use of glycerol kinase” (Boehringer Mannheim GmbH, priority 1983, dated 1987).

Legend:
[1] = biological target: T1, GK from Bacillus stearothermophilus (Geobacillus stearothermophilus, UniProt A0ACH1EBP7); assay: Comparative investigation of inhibitors, reaction rate ΔE/min (Table 1); type: biochemical; conditions: sample glycerol 6 mMole/liter, 1:100, 25° C., 546 nm
T1 construct: coupled glycerol phosphate oxidase/peroxidase test
Experimental: (§1) Comparative investigation of various inhibitors according to the present invention with GK of varying origin: […]
(§2) tris/HCl 0.1 mole/litre, pH 7.6
(§3) glycerol phosphate oxidase
(§4) glycerol kinase 2.0 U/ml.
(§5) magnesium sulphate heptahydrate
(§6) 4-chlorophenol 3.5 mMole/litre
(§7) 4-aminoantipyrine 0.35 mMole/litre
(§8) Sample: aqueous glycerol solution 6 mMole/liter sample/reagent ratio 1:100 (20 μl./2 ml.)
(§9) measurement wavelength 546 nm. (ΔE/min. in each case read off from the linear region)

GK from Escherichia coli = GK from Escherichia coli (Escherichia coli, UniProt P0A6F3); assay: Comparative investigation of inhibitors, reaction rate ΔE/min (Table 2); type: biochemical; conditions: sample glycerol 6 mMole/liter, 1:100, 25° C., 546 nm
Experimental: as §1, §2, §3, §4, §5, §6, §7, §8, §9

GK from Escherichia coli, sequence (P0A6F3 whole entry): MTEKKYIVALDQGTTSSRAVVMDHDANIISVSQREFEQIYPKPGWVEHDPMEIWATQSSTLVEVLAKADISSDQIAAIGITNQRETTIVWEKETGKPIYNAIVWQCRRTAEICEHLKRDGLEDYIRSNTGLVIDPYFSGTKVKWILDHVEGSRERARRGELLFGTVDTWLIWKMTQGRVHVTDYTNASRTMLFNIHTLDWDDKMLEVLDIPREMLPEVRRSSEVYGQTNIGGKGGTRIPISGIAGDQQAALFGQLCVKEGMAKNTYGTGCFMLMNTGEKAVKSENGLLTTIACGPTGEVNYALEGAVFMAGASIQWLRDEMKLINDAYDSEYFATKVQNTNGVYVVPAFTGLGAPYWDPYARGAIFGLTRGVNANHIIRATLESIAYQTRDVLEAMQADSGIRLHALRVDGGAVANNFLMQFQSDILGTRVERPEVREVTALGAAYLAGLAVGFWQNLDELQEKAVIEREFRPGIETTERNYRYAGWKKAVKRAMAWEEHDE
T1 sequence (A0ACH1EBP7 1-496): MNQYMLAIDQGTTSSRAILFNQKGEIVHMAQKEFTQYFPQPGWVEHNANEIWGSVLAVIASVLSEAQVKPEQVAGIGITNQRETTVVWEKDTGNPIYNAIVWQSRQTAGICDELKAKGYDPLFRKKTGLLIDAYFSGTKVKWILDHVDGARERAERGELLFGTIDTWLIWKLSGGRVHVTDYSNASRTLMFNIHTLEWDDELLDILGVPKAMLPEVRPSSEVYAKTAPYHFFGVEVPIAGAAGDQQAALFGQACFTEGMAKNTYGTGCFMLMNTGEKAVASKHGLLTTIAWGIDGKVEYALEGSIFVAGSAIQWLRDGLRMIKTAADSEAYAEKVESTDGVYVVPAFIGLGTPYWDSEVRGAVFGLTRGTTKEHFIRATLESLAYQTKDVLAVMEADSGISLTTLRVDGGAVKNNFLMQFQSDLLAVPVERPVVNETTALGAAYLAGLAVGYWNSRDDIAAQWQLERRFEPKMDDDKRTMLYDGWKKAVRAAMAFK

Compound | ΔE/min ([1]; inhibitor 10 mMol/l) | ΔE/min ([1]; inhibitor 20 mMol/l) | ΔE/min ([1]; inhibitor 50 mMol/l) | ΔE/min ([1]; inhibitor 100 mMol/l) | ΔE/min (GK from Escherichia coli; inhibitor 20 mMol/l) | ΔE/min (GK from Escherichia coli; inhibitor 50 mMol/l) | ΔE/min (GK from Escherichia coli; inhibitor 100 mMol/l) | ΔE/min (GK from Escherichia coli; inhibitor 150 mMol/l) | ΔE/min ([1]; inhibitor 2 mMol/l) | ΔE/min ([1]; inhibitor 5 mMol/l) | ΔE/min (GK from Escherichia coli; inhibitor 5 mMol/l) | ΔE/min (GK from Escherichia coli; inhibitor 10 mMol/l)
O=C[C@@H](O)[C@H](O)[C@H](O)CO [D-arabinose] | 0.426 min⁻¹ | 0.349 min⁻¹ | 0.249 min⁻¹ | 0.121 min⁻¹ | 0.363 min⁻¹ | 0.302 min⁻¹ | 0.231 min⁻¹ | 0.167 min⁻¹ | – | – | – | –
C[C@H](O)[C@@H](O)[C@@H](O)[C@H](O)C=O [L-fucose] | 0.230 min⁻¹ | 0.153 min⁻¹ | 0.077 min⁻¹ | 0.039 min⁻¹ | 0.352 min⁻¹ | 0.286 min⁻¹ | 0.209 min⁻¹ | 0.142 min⁻¹ | – | – | – | –
O=C[C@@H](O)[C@H](O)[C@@H](O)CO [L-xylose] | 0.105 min⁻¹ | 0.062 min⁻¹ | – | – | 0.118 min⁻¹ | 0.072 min⁻¹ | – | – | 0.320 min⁻¹ | 0.188 min⁻¹ | 0.228 min⁻¹ | 0.169 min⁻¹
